Experimental data taken from the Deep4Chem optical property database.
Each block holds one compound with its values, some of them ahead of it.

Assay: photoluminescence quantum yield (fraction); solvent given as SMILES
[1] = in O=P(c1ccccc1)(c1ccccc1)c1ccccc1Oc1ccccc1P(=O)(c1ccccc1)c1ccccc1
[2] = in c1cc(-c2cccc(-n3c4ccccc4c4ccccc43)c2)cc(-n2c3ccccc3c3ccccc32)c1

SMILES: C[Si](C)(C)C#Cc1cc2ccc3cc(C#C[Si](C)(C)C)cc4ccc(c1)c2c34
photoluminescence quantum yield (in Cc1ccccc1): 0.19

SMILES: Cc1cc(-n2c3ccccc3c3cc4c(cc32)C2c3ccccc3C4c3ccccc32)ccc1-c1nc(-c2ccccc2)nc(-c2ccccc2)n1
photoluminescence quantum yield (in Cc1ccccc1): 0.8
photoluminescence quantum yield [1]: 0.51

SMILES: N#Cc1ccc(/C=C/c2ccc3ccc4cccc5ccc2c3c45)cc1
photoluminescence quantum yield (in CC1CCCCC1): 0.8
photoluminescence quantum yield (in CC#N): 0.26
photoluminescence quantum yield (in CO): 0.26
photoluminescence quantum yield (in Cc1ccccc1): 0.79
photoluminescence quantum yield (in ClC(Cl)Cl): 0.3

SMILES: O=C1C2=C3c4ccsc4C=CN3C(=O)C2=C2c3ccsc3C=CN12
photoluminescence quantum yield (in CN(C)C=O): 0.73
photoluminescence quantum yield (in ClC(Cl)Cl): 0.8

SMILES: CCC1=C(C)C2=C(c3cc(C(=O)Cl)cc(C4=C5C(C)=C(CC)C(C)=[N+]5[B-](F)(F)n5c(C)c(CC)c(C)c54)c3)c3c(C)c(CC)c(C)n3[B-](F)(F)[N+]2=C1C
photoluminescence quantum yield (in C1CCOC1): 0.87
photoluminescence quantum yield (in CC#N): 0.41
photoluminescence quantum yield (in CN(C)C=O): 0.61
photoluminescence quantum yield (in Cc1ccccc1): 0.83
photoluminescence quantum yield (in ClC(Cl)Cl): 0.7

SMILES: CN(C)c1ccc(/C=C/c2nc3ccccc3s2)cc1
photoluminescence quantum yield (in C1CCCCC1): 0.001
photoluminescence quantum yield (in C1CCOC1): 0.003
photoluminescence quantum yield (in C1COCCO1): 0.0022
photoluminescence quantum yield (in CC#N): 0.0066
photoluminescence quantum yield (in CC(C)O): 0.0048
photoluminescence quantum yield (in CCCCCC): 0.0018
photoluminescence quantum yield (in CCCCCCC): 0.0014
photoluminescence quantum yield (in CCO): 0.0045
photoluminescence quantum yield (in CCOC(C)=O): 0.0053
photoluminescence quantum yield (in CCOCC): 0.002
photoluminescence quantum yield (in CN(C)C=O): 0.007
photoluminescence quantum yield (in CO): 0.003
photoluminescence quantum yield (in CS(C)=O): 0.0078
photoluminescence quantum yield (in O): 0.0012
photoluminescence quantum yield (in OCC(O)CO): 0.115

SMILES: CC(C)(C)c1cc(C(C)(C)C)c(-c2nnc(-c3ccc(-n4c5ccccc5c5ccccc54)cc3)o2)c(C(C)(C)C)c1
photoluminescence quantum yield (in Cc1ccccc1): 0.62

SMILES: Cc1cc(C)n2c1C=[N+]1[N+](=C3C=NC=CN3[B-]1(F)F)[B-]2(F)F
photoluminescence quantum yield (in ClCCl): 0.57

SMILES: CC(=O)c1ccc(/C=C/C=C/C2=NC3C(=O)NC(N)=NC3N2[C@H]2C[C@H](O)[C@@H](CO)O2)cc1 (stereo not given in full)
photoluminescence quantum yield (in C1COCCO1): 0.59
photoluminescence quantum yield (in CC#N): 0.57
photoluminescence quantum yield (in CO): 0.015

SMILES: c1coc(-c2nc3ccccc3[nH]2)c1
photoluminescence quantum yield (in C1CCOC1): 0.87
photoluminescence quantum yield (in CCCCCC): 0.95
photoluminescence quantum yield (in CCO): 0.93
photoluminescence quantum yield (in CCOCC): 0.94
photoluminescence quantum yield (in CO): 0.97
photoluminescence quantum yield (in ClC(Cl)Cl): 0.28
photoluminescence quantum yield (in ClCCl): 0.86
photoluminescence quantum yield (in O): 0.96

SMILES: CN(C)c1ccc(C2=Nc3sc4cc(F)ccc4[n+]3[B-](F)(F)O2)cc1
photoluminescence quantum yield (in C1CCOC1): 0.72
photoluminescence quantum yield (in CC#N): 0.13
photoluminescence quantum yield (in CC(C)=O): 0.23
photoluminescence quantum yield (in Cc1ccccc1): 0.85
photoluminescence quantum yield (in ClCCl): 0.74

SMILES: N#Cc1cccc(N)c1
photoluminescence quantum yield (in C1CCCCC1): 0.062
photoluminescence quantum yield (in CC#N): 0.32
photoluminescence quantum yield (in CCCCCC): 0.16
photoluminescence quantum yield (in CCO): 0.19
photoluminescence quantum yield (in O): 0.0019
photoluminescence quantum yield (in OCC(F)(F)F): 0.0054

SMILES: c1ccc2c(c1)Sc1ccccc1N2c1ccc2c(ccc3nc4ccc5cc(N6c7ccccc7Sc7ccccc76)ccc5c4nc32)c1
photoluminescence quantum yield (in C1CCCCC1): 0.06
photoluminescence quantum yield (in Cc1ccccc1): 0.07

SMILES: CC(C)(C)NC1=C2C=CC=[N+]2[B-](F)(F)n2cccc21
photoluminescence quantum yield (in C1CCCCC1): 0.63
photoluminescence quantum yield (in CC(C)=O): 0.002
photoluminescence quantum yield (in CCO): 0.002
photoluminescence quantum yield (in CCOC(C)=O): 0.012
photoluminescence quantum yield (in CO): 0.001
photoluminescence quantum yield (in OCC(F)(F)F): 0.006

SMILES: CC(C)(C)c1ccc2c(c1)c1cc(C(C)(C)C)ccc1n2-c1cc[n+]2c(c1)-c1ccccc1O[B-]2(F)F
photoluminescence quantum yield [1]: 0.74

SMILES: CC(C)(C)c1ccc2c(c1)c1cc(C(C)(C)C)ccc1n2-c1ccc(C#Cc2ccc(C=C(C#N)C#N)cc2)cc1
photoluminescence quantum yield (in CC#N): 0.33
photoluminescence quantum yield (in CCCCC): 0.5
photoluminescence quantum yield (in Cc1ccccc1): 0.48
photoluminescence quantum yield (in ClCCl): 0.4

SMILES: COC(=O)CC1(C(=O)OC)Oc2c(c(C(C)=O)c3c(c2C(C)=O)OCO3)O1
photoluminescence quantum yield (in CC#N): 0.62

SMILES: O=C(c1ccc(N2c3ccccc3Oc3ccccc32)cc1)c1cccc(C(=O)c2ccc(N3c4ccccc4Oc4ccccc43)cc2)c1
photoluminescence quantum yield (in Cc1ccccc1): 0.36
photoluminescence quantum yield [2]: 0.71

SMILES: CCOC(=O)c1c2c3c(ccc(OC)c3c3cc4c(cc13)[Si](C)(C)O[Si]4(C)C)N(C)C2=O
photoluminescence quantum yield (in CC#N): 0.46

SMILES: c1ccc(-c2cc(-c3ccc(-c4nc(-c5ccccn5)c(-c5ccccn5)[nH]4)cc3)cc(-c3ccccn3)n2)nc1
photoluminescence quantum yield (in C1CCOC1): 0.06
photoluminescence quantum yield (in CC#N): 0.08
photoluminescence quantum yield (in CC(C)=O): 0.201
photoluminescence quantum yield (in CCCCCC): 0.006
photoluminescence quantum yield (in CCO): 0.202
photoluminescence quantum yield (in CCOC(C)=O): 0.153
photoluminescence quantum yield (in CN(C)C=O): 0.135
photoluminescence quantum yield (in CO): 0.078
photoluminescence quantum yield (in CS(C)=O): 0.111
photoluminescence quantum yield (in ClC(Cl)Cl): 0.13
photoluminescence quantum yield (in ClCCl): 0.145
photoluminescence quantum yield (in O): 0.045

SMILES: CCOC(=O)CN1C(=O)C2=C(c3ccccc3)N(CC(=O)OCC)C(=O)C2=C1c1ccccc1
photoluminescence quantum yield (in CC#N): 0.31
photoluminescence quantum yield (in CS(C)=O): 0.56
photoluminescence quantum yield (in Cc1ccccc1): 0.36

SMILES: CCCN1/C(=C\c2c(-c3ccc(N(C)C)cc3)c(=O)c2=O)C=Cc2ccccc21
photoluminescence quantum yield (in C1CCCCC1): 0.0262
photoluminescence quantum yield (in Cc1ccccc1): 0.0201
photoluminescence quantum yield (in ClCCl): 0.001

SMILES: CC(C)(C)c1ccc2c(c1)c1cc(C(C)(C)C)ccc1n2-c1cc(C(=O)c2cccnc2)cc(-n2c3ccc(C(C)(C)C)cc3c3cc(C(C)(C)C)ccc32)c1
photoluminescence quantum yield (in Cc1ccccc1): 0.07
photoluminescence quantum yield [2]: 0.92

The remaining lines, values ahead:

photoluminescence quantum yield (in CO): 0.66
SMILES: C#CCOc1ccc(/C=C/C2=[N+]3C(=C(c4ccc(N(C)C)cc4)c4c(C)cc(C)n4[B-]3(F)F)C(C)=C2)cc1

photoluminescence quantum yield (in C1CCOC1): 0.57
photoluminescence quantum yield (in ClCCl): 0.88
SMILES: F[B-]1(F)n2c(c3ccccc3c2-c2ccccc2)C=C2c3ccccc3C(c3ccccc3)=[N+]21

photoluminescence quantum yield (in C1CCCCC1): 0.71
SMILES: CCC(C)(C)c1ccc(-c2ccc3c(c2)C(CCOC)(CCOC)c2cc(C(C)(C)CC)ccc2-3)cc1

photoluminescence quantum yield (in ClCCl): 0.392
SMILES: c1ccc(N(c2ccccc2)c2ccc(-c3ccc(-c4nc(-c5ccccn5)n(-c5ccccc5)n4)cc3)cc2)cc1

photoluminescence quantum yield (in C1CCCCC1): 0.3
photoluminescence quantum yield (in CCCCCO): 0.25
photoluminescence quantum yield (in CCCCO): 0.21
photoluminescence quantum yield (in CCCO): 0.19
photoluminescence quantum yield (in CCO): 0.17
photoluminescence quantum yield (in CO): 0.15
SMILES: ClC(Cl)=C1c2ccccc2C(C2(Cl)c3ccccc3C(=C(Cl)Cl)c3ccccc32)c2ccccc21 (stereo not given)

photoluminescence quantum yield (in ClCCl): 0
SMILES: COc1ccc(/C=C/c2nc(-c3ccc([N+](=O)[O-])cc3)[nH]c2/C=C/c2ccc(OC)cc2)cc1

photoluminescence quantum yield (in CC#N): 0.93
SMILES: CC1=C(c2ccccc2)C2=Cc3c(-c4ccccc4)c(C)c(C)n3[B-](F)(F)[N+]2=C1C

photoluminescence quantum yield (in ClC(Cl)Cl): 0.05
SMILES: COCCN(CCOC)c1ccc(/C=C/c2sc3c4nc(C)sc4ccc3[n+]2C)cc1

photoluminescence quantum yield (in ClCCl): 0.23
SMILES: F[B-]1(F)Oc2ccc(Br)cc2-c2c3c(c4c([n+]21)CCc1ccccc1-4)CCc1ccccc1-3

photoluminescence quantum yield (in ClC(Cl)Cl): 0.14
SMILES: CCCCCCCCc1ccc(-n2c3c4ccccc4nc(-c4ccc(C#N)cc4)c3c3c2c2c(-c4ccc(C#N)cc4)nc4ccccc4c2n3-c2ccc(CCCCCCCC)cc2)cc1

photoluminescence quantum yield (in C1CCCCC1): 0.06
photoluminescence quantum yield (in CC#N): 0.02
photoluminescence quantum yield (in CCO): 0.026
photoluminescence quantum yield (in CCOC(C)=O): 0.034
photoluminescence quantum yield (in CO): 0.025
photoluminescence quantum yield (in OCC(F)(F)F): 0.022
SMILES: Cc1ccc(C2=C3C=C(I)C=[N+]3[B-](F)(F)n3c2cc(I)c3I)cc1

photoluminescence quantum yield (in ClCCl): 0.72
SMILES: CCCCC(CC)COc1ccc2nc(-c3ccc(-c4c(C)noc4C)s3)sc2c1 (stereo not given)

photoluminescence quantum yield (in ClCCl): 0
SMILES: Cc1cc2ccccc2c2c1c1ccccc1n2-c1ncccn1

photoluminescence quantum yield (in ClC(Cl)Cl): 0.06
SMILES: Cc1cccc(C2=Cc3c4ccccc4cc[n+]3[B-](F)(F)O2)c1

photoluminescence quantum yield (in CC#N): 0.069
SMILES: Oc1ccccc1/C=N/C1CCCCC1/N=C/c1ccccc1O (stereo not given)

photoluminescence quantum yield (in c1cc(-n2c3ccccc3c3ccccc32)nc(-n2c3ccccc3c3ccccc32)c1): 0.89
SMILES: CC(C)(C)c1ccc(-c2nnc(-c3c(-n4c5ccccc5c5ccccc54)c(-n4c5ccccc5c5ccccc54)c(-c4nnc(-c5ccc(C(C)(C)C)cc5)o4)c(-n4c5ccccc5c5ccccc54)c3-n3c4ccccc4c4ccccc43)o2)cc1

photoluminescence quantum yield (in CO): 0.02
SMILES: N[C@@H](Cn1nnc2cc(-c3ccc4c(c3)OCO4)ccc21)C(=O)O

photoluminescence quantum yield (in C1CCOC1): 0.27
SMILES: CCC1(CC)c2cc(N(c3ccccc3)c3ccccc3)ccc2-c2c1c1c(c3c2C(CC)(CC)c2cc(N(c4ccccc4)c4ccccc4)ccc2-3)C(CC)(CC)c2cc(N(c3ccccc3)c3ccccc3)ccc2-1

photoluminescence quantum yield (in CS(C)=O): 0.02
SMILES: Cn1c(=O)c(/N=N/c2ccc(S(=O)(=O)O)c3ccccc23)c(O)c2ccccc21

photoluminescence quantum yield (in CCO): 0.03
SMILES: c1ccc(N(c2ccccc2)c2ccccc2)cc1

photoluminescence quantum yield (in ClC(Cl)Cl): 0.1
photoluminescence quantum yield (in ClCCl): 0.1
SMILES: COc1ccc(C2=[N+]3C(=Nc4c(-c5ccccc5)c(Br)c(-c5ccc(OC)cc5)n4[B-]3(F)F)C(c3ccccc3)=C2Br)cc1

photoluminescence quantum yield (in ClC(Cl)Cl): 0.04
SMILES: CC1=c2cc3c(cc2=[N+]2C1=Cc1c4ccccc4c(C)n1[B-]2(F)F)C1=Cc2c4ccccc4c(C)n2[B-](F)(F)[N+]1=C3C

photoluminescence quantum yield (in C1CCOC1): 0.23
SMILES: N#Cc1c(N2CCCCC2)cc(-c2ccc(-c3ccccc3)s2)c2c1CCc1ccccc1-2

photoluminescence quantum yield (in CC(=O)N(C)C): 0.024
SMILES: CC(C)(C)c1cc(/C2=C3\C=CC(=N3)/C(c3ccc([N+](=O)[O-])cc3)=c3/cc/c([nH]3)=C(\c3ccc([N+](=O)[O-])cc3)C3=N/C(=C(/c4cc(C(C)(C)C)cc(C(C)(C)C)c4)c4cc2c[nH]4)C=C3)cc(C(C)(C)C)c1

photoluminescence quantum yield (in ClCCl): 0.11
SMILES: CC(C)c1cccc(C(C)C)c1N1C(=O)c2cccc3c(Oc4ccc(C(C)(C)c5ccccc5)cc4)ccc(c23)C1=O

photoluminescence quantum yield (in ClC(Cl)Cl): 0.072
SMILES: CC(C)(C)c1cccc2c1oc1nc3oc4ccc(-n5c6ccccc6c6ccccc65)cc4c3cc12

photoluminescence quantum yield (in C1CCCCC1): 0.7
SMILES: COc1ccc(-c2ccc(-c3ccccc3)cc2)cc1
